The target of the experiment is human NK1 receptor (Homo sapiens, UniProt P25103). The experiment can be described thus: NK1 receptor test by the methods of WO 93/01165 (pages 36 to 39). It is filed as binding. The method, then:
The exemplified compounds of this invention were tested by the methods set out at pages 36 to 39 of International Patent Specification No. WO 93/01165.

Each structure is given as a SMILES string. Counter-ions that a name gives are not always drawn.

Sequence of human NK1 receptor (P25103 whole entry): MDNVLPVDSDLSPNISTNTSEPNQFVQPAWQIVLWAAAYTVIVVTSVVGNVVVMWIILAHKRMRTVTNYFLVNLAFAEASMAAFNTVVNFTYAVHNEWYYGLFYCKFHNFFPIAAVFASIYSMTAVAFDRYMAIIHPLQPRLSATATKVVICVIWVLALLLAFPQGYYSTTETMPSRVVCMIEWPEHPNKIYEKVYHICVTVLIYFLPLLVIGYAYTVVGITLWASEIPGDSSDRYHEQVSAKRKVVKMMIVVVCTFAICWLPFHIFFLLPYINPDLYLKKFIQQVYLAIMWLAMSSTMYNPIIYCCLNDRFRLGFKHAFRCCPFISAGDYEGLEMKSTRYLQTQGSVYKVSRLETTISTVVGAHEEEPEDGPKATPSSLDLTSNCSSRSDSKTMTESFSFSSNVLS

`Fc1ccc(C2NCCCC2NCc2cc(-n3nnnc3C(F)(F)F)ccc2OC2CC2)cc1` (racemic) [Example 2, (±)-(2 R3 R 2 S3 S)-N-({2-Cyclopropoxy-5-[5-(trifluoromethyl)tetrazol-1-yl]phenyl}methyl)-2-(4-fluorophenyl)piperidin-3-amine Dihydrochloride] displayed a half-inhibitory concentration (IC50) of 130 pM. That is a sub-nanomolar value. Molecule `FC(F)(F)c1nnnn1-c1ccc(OC2CC2)c(CN[C@H]2CCCN[C@H]2c2ccccc2)c1` [Example 1, (2 S3 S)-N-({2-Cyclopropoxy-5-[5-(trifluoromethyl)tetrazol-1-yl]phenyl}methyl)-2-phenylpiperidin-3-amine Dihydrochloride] gave an IC50 of 80 pM. This IC50 lies about 1.6-fold lower than the previous one.

What is called IC50 is the concentration that inhibits the measured activity by half. A high value points to lower potency.

Source of the values: US20020052504A1, “PIPERIDINE DERIVATIVES AND THEIR USE AS TACHYKININ ANTAGONISTS” (priority 1997, published 2002).
